Measured values taken from patent US20250332397A1, “SYSTEMS AND METHODS FOR MICRONEEDLE THERAPEUTIC DELIVERY WITH ACOUSTIC SIGNALS” (THE TRUSTEES OF INDIANA UNIVERSITY, priority 2021, published 2025).

Key:
[1] = Ex vivo delivery in mice skin tissues (dye released, absorbance); assay type: in vitro ADME, BALB/c mice; details: FIG. 10; 1 Mhz, duty cycle 15%, 4.2 w/cm^2; 30 s, 60 s, 180 s
From the text: The prepared RhB dye (or epinephrine) loaded acoustic patches (or passive patches) were inserted into the fresh hair removed skin tissues harvested from BALB/c mice, and removed from the mice skin tissues. The acoustic path treatment condition (frequency, 1 Mhz; duty cycle, 15%; energy density, 4.2 w/cm^2) was applied to three mouse skin tissues, while there was not acoustic stimulation for passive patch treatments. The mouse skin tissues after acoustic patch and passive treatments with three different treatment time (e.g., 30 s, 60 s, or 180 s) were analyzed.

[2] = acoustic patch mediated delivery, mouse "B"

Description for anaphylactic mouse model: Olbumin from chicken egg white (OVA) was used as antigen to induce anaphylaxis, where OVA dosage could regulate the degree of anaphylaxis. Specifically, an OVA solution as an adjuvant was prepared in 1 mg/mL of OVA with 1 μg/mL of Pertussis toxin and 10 mg/mL of aluminum potassium sulfate in 0.9% saline. To sensitize mice, BALB/c mice were injected intraperitoneally with 100 μL of the adjuvant OVA solution. After 3 weeks, these actively sensitize mice were challenged with 10 mg/mL of the adjuvant OVA solution. To trigger the anaphylactic reaction, a 50 μL of 10 mg/mL OVA solution in 0.9% saline was injected intraperitoneally into a mouse. The whole anaphylactic process lasted for about 120 mins, and all the mice were sacrificed after the experimental procedures.
The mice during anaphylaxis were characterized via physiological parameters and symptoms including rectal temperature, movement score, respiratory rate, or blood histamine level. Rectal temperature was measured using a rectal probe for mice in every 2 min in real-time. Respiratory rate was measured through counting the breaths during every 20 seconds through observing the thoracic movement. Movement score was tested by rules as follows: (1) react actively after provoking; (2) slow in response after provoking; (3) no active response after provoking; (4) died. Blood histamine level was measured by testing whole blood samples through tail vein through an ELISA kit (Catalog No: IT6088, vendors). Samples were all restored in −80° C. refrigerator for later assessment of the concentration of histamine by an ELISA kit.
Mice were sensitized via intraperitoneal injection of chicken ovalbumin (OVA) and aluminum potassium sulfate adjuvant and triggered an acute allergic reaction by injecting OVA as an allergen after three weeks. […] We measured the core temperature and respiratory rate of the sensitized mice during the induction of anaphylaxis.

CCN(CC)c1ccc2c(-c3ccc(S(=O)(=O)O)cc3S(=O)(=O)[O-])c3ccc(=[N+](CC)CC)cc-3oc2c1 [RhB dye, sulforhodamine B]
dye released into mouse skin over different delivery times, with acoustics vs without acoustics [1]: increased delivery

CNC[C@H](O)c1ccc(O)c(O)c1 [epinephrine]
allergic symptoms of mouse experiencing severe anaphylaxis (anaphylactic mouse model; [2]): relief from allergic symptoms | body temperature of mouse experiencing severe anaphylaxis (anaphylactic mouse model; [2]): immediate body temperature increase | symptoms of anaphylaxis (hypothermia, reduced activity, opisthotonos) (anaphylactic mouse model; after intramuscular injection): obtained relief from these symptoms
